Data on 2 compounds can be found in patent US20150351394A1, “BACTERICIDAL COMPOSITION CONTAINING FLUAZINAM” (Shenzhen Noposion Agrochemicals Co., Ltd., priority 2014, published 2015).

Experiment [1] concerns pepper phytophthora capsici. Briefly: Indoor toxicity test on potted pepper seedlings inoculated with pepper phytophthora capsici (NY/T1156.11-2008). The format is in vivo. To be noted: single active compound, survey 8 days after inoculation. The procedure: The pepper phytophthora capsici is acted as test object.
Test methods: referring to the “Republic of China agricultural industry standard NY/T1156.11-2008”, selecting growing consensus potted pepper seedlings, selecting five pots per test object with respective number for use, spraying five milliliters for each pot by a Potter spray tower in a pressure of 50 PSI. The test results are shown in Tables 1 and 2 and each test pesticide is provided with five concentration gradients. After 24 hours, five millimeters pepper phytophthora capsici mycelium blocks are inoculated into the objects. Pepper seedlings with an equal amount of water spraying are selected as the blank control. After inoculation, pepper seedlings are shifted into light moisturizer cabinets for culture. After 8 days, in accordance with grading standards of incidence of pepper phytophthora blights, the disease indexes are surveyed and the control effects are calculated.
Capsici disease classification criteria:
0 level: no lesion on the leaves;
1 level: lesion area of the total leaf area is 5% or less;
3 level: lesion area of the total leaf area is from 6% to 10%;
5 level: lesion area of the total leaf area is from 11% to 25%;
7 level: lesion area of the total leaf area is from 25% to 50%;
9 level: lesion area of the total leaf area is 50% or more.
Disease index=[Σ(leaf quantity in each level×respective level number)×100]/(Total quantity of tested leaves×9).
Control effect (%)=[(blank disease index−treated disease index)]×100]/blank disease index.
Expected effect of a mixture of the active ingredients (i.e., control effect in theory, %) is determined by using Colby's formula and is compared with observed effect:
Colby formula: E=X+Y−X*Y/100
E: expected effect of the composition provided that active ingredient A thereof is in a concentration of a value, and active ingredient B is in a concentration of b value.
X: expected effect provided that usage dose of the active ingredient A is a value.
Y: expected effect provided that usage dose of the active ingredient B is b value.
It is testified that the mixture has a synergistic effect when the actual control effect observed exceeds the expected control effect.

Experiment [2] relates to pepper phytophthora blight. Briefly: Field efficacy experiment against the pepper phytophthora blight (Haikou, Hainan). The format is in vivo, phytophthora capsici. Particulars: two foliar sprays 7 days apart, field peppers. Here is the method: Test site is Haikou in Hainan. […] Four plots are treated per pesticide and replicates. Each plot has surface area of 20 square meters. The pesticides are applied in the early occurrence of disease and are uniformly sprayed onto the leaves until dripping for the first time. Clean water is used as the blank control. Seven days later, the pesticides are applied for the second time. Disease incidence of the pepper phytophthora blights to the peppers prior to the first pesticide application and that of after 15 days from the second pesticide application are surveyed. Each plot uses a five-point sampling means, surveying two per point, and recording the number of diseased plants, dead plants and apparent withered plants. Disease index and control effect are calculated for each treatment.
Classification method (according to symptom types):
0 level: health, no disease;
1 level: lesions happen only to overground leaves and fruitst;
3 level: brown rot spots happen to overground stems and branches;
5 level: brown rot spots happen to the stem base;
7 level: brown rot spots happen to overground stems, branches and stem base, and some dead branches;
9 level: entire plant dead.
Efficacy calculation method:
Disease index=[Σ(plant quantity in each level×respective level number)×100]/(Total quantity of tested plants×9). […]

Regarding `C=CCc1ccc(O)c(OC)c1` [Eugenol, 4-allyl-2-methoxy-phenol], the “Actual effect (control effect)” value in experiment [1] (1 ppm in spraying droplet) is 6.2%; in experiment [1] (10 ppm in spraying droplet), 17.6%; in experiment [1] (30 ppm in spraying droplet), 46.3%; in experiment [1] (50 ppm in spraying droplet), 63.8%; in experiment [1] (100 ppm in spraying droplet), 79.5%. In addition, the Control effects in experiment [2] (20 g a.i./ha) was 71.6%.

As for `O=[N+]([O-])c1cc(C(F)(F)F)c(Cl)c([N+](=O)[O-])c1Nc1ncc(C(F)(F)F)cc1Cl` [Fluazinam, 3-chloro-N-(3-chloro-5-trifluoromethyl-2-pyridyl)-α,α,α-trifluor-2,6-dinitro-p-toluidine], the “Actual effect (control effect)” value is reported as 11.4% in experiment [1] (1 ppm in spraying droplet); 31.2% in experiment [1] (10 ppm in spraying droplet); 52.9% in experiment [1] (20 ppm in spraying droplet); 71.4% in experiment [1] (50 ppm in spraying droplet); 87.1% in experiment [1] (100 ppm in spraying droplet). In experiment [2] (250 g a.i./ha), the Control effects came out at 78.7%.
